Data published in patent US20040024215A1, “Benzamide derivatives and their use as apob-100 and mtp inhibitors” (priority 2000, published 2004).

Tests used:
human MTP = human MTP (Homo sapiens, UniProt P55157); experiment: human MTP activity assay (SPA, 3H-triolein transfer between liposomes); assay type: biochemical; details: 3H-triolein transfer from donor to acceptor liposomes, 25 min incubation at 37° C., streptavidin-SPA beads
Description: The ability of the compounds of this invention to inhibit human MTP activity is measured by an in vitro assay where MTP tranfers 3H-triolein between phosphatidylcholine liposomes. The specificity of the compounds of the invention is established by comparing the effects on apoB-100 and apoprotein A-1 production. A specificity of at least 100 is preferred.
The human MTP activity assay was established using SPA technology. Donor liposomes were prepared with 3H-triolein and phosphatidylcholine, while acceptor liposomes contained biotinylated phosphatidylethanolamine and phosphatidylcholine. The MTP-mediated 3H-triolein transfer onto acceptor liposomes was allowed by a 25 min incubation at 37° C., and quantified by the addition of streptavidin-SPA beads.

human MTP, sequence (P55157 19-894): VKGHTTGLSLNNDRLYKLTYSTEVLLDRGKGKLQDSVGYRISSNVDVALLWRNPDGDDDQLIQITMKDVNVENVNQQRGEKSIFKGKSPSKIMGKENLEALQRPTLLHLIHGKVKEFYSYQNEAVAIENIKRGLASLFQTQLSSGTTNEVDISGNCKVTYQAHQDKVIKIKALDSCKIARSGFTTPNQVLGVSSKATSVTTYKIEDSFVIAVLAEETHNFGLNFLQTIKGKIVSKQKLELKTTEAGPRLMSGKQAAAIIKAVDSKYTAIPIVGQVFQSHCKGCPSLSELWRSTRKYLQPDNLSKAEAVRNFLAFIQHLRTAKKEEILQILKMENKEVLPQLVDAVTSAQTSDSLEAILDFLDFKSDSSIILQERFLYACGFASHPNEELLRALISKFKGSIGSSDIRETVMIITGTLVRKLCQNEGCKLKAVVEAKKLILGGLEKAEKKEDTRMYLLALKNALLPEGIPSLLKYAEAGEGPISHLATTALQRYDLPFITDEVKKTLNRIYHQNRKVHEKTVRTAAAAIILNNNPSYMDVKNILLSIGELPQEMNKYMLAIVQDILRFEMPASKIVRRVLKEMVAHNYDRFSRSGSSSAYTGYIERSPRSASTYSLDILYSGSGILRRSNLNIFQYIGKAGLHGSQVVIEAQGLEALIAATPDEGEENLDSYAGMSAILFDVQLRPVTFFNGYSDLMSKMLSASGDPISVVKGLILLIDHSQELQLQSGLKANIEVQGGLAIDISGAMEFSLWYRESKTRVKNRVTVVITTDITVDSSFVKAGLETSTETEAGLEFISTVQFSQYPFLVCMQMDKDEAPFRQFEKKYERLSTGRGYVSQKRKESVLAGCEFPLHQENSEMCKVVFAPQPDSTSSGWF
human MTP, sequence (P07237 18-508 partner): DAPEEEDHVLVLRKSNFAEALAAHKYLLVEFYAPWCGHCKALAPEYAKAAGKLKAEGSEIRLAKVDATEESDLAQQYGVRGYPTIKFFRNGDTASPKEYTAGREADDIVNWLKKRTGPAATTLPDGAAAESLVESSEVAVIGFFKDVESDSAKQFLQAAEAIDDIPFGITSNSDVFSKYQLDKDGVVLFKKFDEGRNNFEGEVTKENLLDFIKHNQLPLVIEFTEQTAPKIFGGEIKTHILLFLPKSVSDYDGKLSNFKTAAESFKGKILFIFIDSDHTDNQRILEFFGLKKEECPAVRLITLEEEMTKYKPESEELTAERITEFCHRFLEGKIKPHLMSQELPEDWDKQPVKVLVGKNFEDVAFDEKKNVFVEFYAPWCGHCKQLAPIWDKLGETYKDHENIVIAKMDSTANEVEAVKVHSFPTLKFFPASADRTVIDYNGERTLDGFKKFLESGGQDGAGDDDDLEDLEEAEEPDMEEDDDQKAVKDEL

Row | Structure (SMILES) | melting point | IC50 (human MTP)
1 | CC(c1ccccc1)N1CCN(c2ccc(NC(=O)c3ccccc3-c3ccc(C(F)(F)F)cc3)cc2)CC1 (stereo not drawn) [Example 1, 4′-Trifluoromethyl-biphenyl-2-carboxylic acid [4-(4-(α-methyl-benzyl)-piperazin-1-yl)-phenyl]-amide] | 194 to 196 °C | 
2 | Cc1ccc(C(=O)Nc2ccc(N3CCN(C(C)c4cccc(C#N)c4)CC3)cc2)c(-c2ccc(C(F)(F)F)cc2)c1 (stereo not drawn) [Example 2, 5-Methyl-4′-trifluoromethyl-biphenyl-2-carboxylic acid [4-(4-(3-cyano-α-methyl-benzyl)-piperazin-1-yl)-phenyl]-amide] | 192 to 194 °C | 1 nM
3 | CC(c1cccc(C(F)(F)F)c1)N1CCN(c2ccc(NC(=O)c3ccccc3-c3ccc(C(F)(F)F)cc3)cc2)CC1 (stereo not drawn) [Example 4, 4′-Trifluoromethyl-biphenyl-2-carboxylic acid [4-(4-(3-trifluoromethyl-α-methyl-benzyl)-piperazin-1-yl)-phenyl]-amide] | 158 to 160 °C | 
4 | N#CC(c1ccccc1)N1CCN(c2ccc(NC(=O)c3ccccc3-c3ccc(C(F)(F)F)cc3)cc2)CC1 (stereo not drawn) [Example 5, 4′-Trifluoromethyl-biphenyl-2-carboxylic acid [4-(4-(α-cyano-benzyl)-piperazin-1-yl)-phenyl]-amide] | 204 °C | 

The remaining lines, values ahead:

Row | melting point | IC50 (human MTP) | Structure (SMILES)
5 | 200 to 202 °C |  | CC(=O)C(c1ccc(F)cc1)N1CCN(c2ccc(NC(=O)c3ccccc3-c3ccc(C(F)(F)F)cc3)cc2)CC1 (stereo not drawn) [Example 7, 4′-trifluoromethyl-biphenyl-2-carboxylic acid [4-(4-(4-fluoro-α-acetyl-benzyl)-piperazin-1-yl)-phenyl]-amide]
6 | 165 °C | 40 nM | O=C(Nc1ccc(N2CCN(C(C(=O)c3ccccc3)c3ccccc3)CC2)cc1)c1ccccc1-c1ccc(C(F)(F)F)cc1 (stereo not drawn) [Example 8, 4′-Trifluoromethyl-biphenyl-2-carboxylic acid [4-(4-(α-benzoyl-benzyl)-piperazin-1-yl)-phenyl]-amide]
7 |  | 5.6 nM | O=C(Nc1ccc(N2CCN(C(c3ccccc3)c3noc(-c4ccccc4)n3)CC2)cc1)c1ccccc1-c1ccc(C(F)(F)F)cc1 (stereo not drawn) [Example 9, 4′-Trifluoromethyl-biphenyl-2-carboxylic acid [4-(4-(α(5-phenyl-[1,2,4]oxadiazol-3-yl)-benzyl)-piperazin-1-yl)-phenyl]-amide]
8 |  | 157 nM | O=C(Nc1ccc(N2CCN(C(Cn3cccn3)c3ccccc3)CC2)cc1)c1ccccc1-c1ccc(C(F)(F)F)cc1 (stereo not drawn) [Example 10, 4′-Trifluoromethyl-biphenyl-2-carboxylic acid [4-(4-(α-((pyrazol-1-yl)-methyl)-benzyl)-piperazin-1-yl)-phenyl]-amide]
9 | 130 to 135 °C | 3.2 nM | COC(=O)C(c1ccccc1)N1CCN(c2ccc(NC(=O)c3ccccc3-c3ccc(C(F)(F)F)cc3)cc2)CC1 (stereo not drawn) [Example 11, 4′-Trifluoromethyl-biphenyl-2-carboxylic acid [4-(4-(α-(methoxcyarbonyl)-benzyl)-piperazin-1-yl)-phenyl]-amide]
10 | 139 to 141 °C | 3 nM | O=C(Nc1ccc(N2CCN(C(C(=O)NCc3ccccn3)c3ccccc3)CC2)cc1)c1ccccc1-c1ccc(C(F)(F)F)cc1 (stereo not drawn) [Example 14, 4′-Trifluoromethyl-biphenyl-2-carboxylic acid [4-(4-(α-((pyridin-2-yl-methyl)-aminocarbonyl)-benzyl)-piperazin-1-yl)-phenyl]-amide]
11 | 202 to 203 °C |  | N#Cc1cccc(C(c2ccc[nH]2)N2CCN(c3ccc(NC(=O)c4ccccc4-c4ccc(C(F)(F)F)cc4)cc3)CC2)c1 (stereo not drawn) [Example 17, 4′-Trifluoromethyl-biphenyl-2-carboxylic acid [4-(4-(3-cyano-α-(pyrrol-2-yl)-benzyl)-piperazin-1-yl)-phenyl]-amide]
